The values that follow come from US7973218B2, “Methods and compositions for controlling weeds” (Pioneer Hi-Bred International, Inc., priority 2005, dated 2011).

Data set [1] relates to Parent elite stiff stalk inbred corn. As to the kind of experiment: Postemergence herbicide application to potted corn (fresh weight, visual injury). The class given is in vivo. The settings on record: 3472 g ae/ha.
The subject of data set [2] is Heterozygous GAT-HRA corn. The data set is described as above. The class given is in vivo. The settings on record: 3472 g ae/ha.
Data set [3] concerns GAT-HRA transgenic cotton plants. The data set can be described thus: Greenhouse over-the-top herbicide spray of cotton. Particulars: glyphosate 1.5 lb acid equivalent per acre; 14 days after application. The class given is in vivo, Gossypium hirsutum. From the text:
(§1) Cotton (Gossypium hirsutum) Coker 312 was transformed with a GAT polynucleotide (gat 4621) together with an Hra polynucleotide (SEQ ID NO:86) both operably linked to strong, constitutive plant viral promoters. The promoter linked to gat4621 contains a duplicated portion of the Strawberry Vein Banding Virus transcript promoter (Wang et al. Virus Genes 20: 11-17, 2000; Genbank X97304). The Hra gene was driven by a duplicated portion of the Mirabilis Mosaic Caulimovirus full-length transcript promoter (U.S. Pat. No. 6,420,547; Dey and Maiti, Transgenics 3:61-70, 1999). The transformation procedure used Agrobacterium tumefaciens containing an expression cassette with the genes to be transferred and cotyledon explant derived callus with some capacity to undergo embryogenesis. The callus was exposed to Agrobacterium for 48-72 hours. The callus was then exposed to selection for transformed cells on 50-200 μg/l chlorosulfuron and/or 50-450 μM glyphosate in solid medium. Glyphosate can also be used in a concentration range of about 5 to about 450 μM. Selection was applied until somatic embryos formed, and selection was again applied at the embryo germination step, and optionally during rooting of plantlets. Over 450 GAT-HRA transformation events were produced using selection with both chlorsulfuron and glyphosate.
(§2) Transformed cotton plants were rooted and then transferred to soil for further growth. Plants were then subjected to herbicide spray treatments in a greenhouse. […] Untransformed Coker 312 control plants were dead 2 weeks after glyphosate application. […] Plants transformed with both GAT and HRA were further subjected to an “over the top” application of the sulfonylurea herbicide rimsulfuron at a rate of 16 g active ingredient/hectare. […] In further experiments 32 g ai/ha rimsulfuron were applied to the cotton.

For data set [4], the system named is Untransformed Coker 312 cotton plants. As to the kind of experiment: Greenhouse over-the-top herbicide spray of cotton. The class given is in vivo, Gossypium hirsutum.
Description: as §1, §2

The subject of data set [5] is non-transformed GS3 embryos. The data set can be described thus: Glyphosate kill curve. Type of data set: cell-based, maize. The settings on record: about 40 days culture. As to the method: (§3) A glyphosate kill curve was established by testing non-transformed embryos response on media with different levels of glyphosate. GS3 embryos were isolated from an immature ear and placed onto media containing glyphosate at 0.0, 0.5, 1.0, and 2.0 mM. After about 40 days culture, the response of the embryos were observed and recorded. Similarly, infected GS3 embryos with the GAT construct were placed onto media containing glyphosate at 0.0, 0.5, 1.0, and 2.0 mM. After about 40 days culture, the response of the infected embryos were observed and recorded (FIG. 7).

The test system of data set [6] is infected GS3 embryos with the GAT construct. The data set can be described thus: Glyphosate selection of infected embryos. Type of data set: cell-based, maize. The settings on record: 1.0 mM or 2.0 mM glyphosate in medium; about 40 days culture. As to the method: as §3
Data set [7] concerns non-glyphosate resistant ryegrass. As to the kind of experiment: Control of ryegrass by glyphosate, metsulfuron-methyl and two additives. The class given is in vivo. Particulars: 0.5 L ha-1 glyphosate (SCAT) alone. The protocol: The example was conducted on non-glyphosate resistant ryegrass. As provided in Table 23, all treatments that included glyphosate [180 g a.i. L ha^−1 (0.5 L glyphosate (SCAT®))] plus metsulfuron-methyl (BRUSH-OFFS®) (5 and 10 g ha^−1) gave 100% control of the ryegrass.

Data set [8] has as its system Hairy Fleabane (Conyza bonariensis), glyphosate sensitive biotype. As to the kind of experiment: Control of hairy fleabane by glyphosate, metsulfuron-methyl and two additives. Type of data set: in vivo. Particulars: glyphosate on its own. As to the method: This example included the same treatments as used in Example 11, except the treatments were carried out on a glyphosate sensitive biotype of Kleinskraalhans (Conyza bonariensis).

Data set [9] has as its system Glyphosate, Paraquat, and ACCase-Inhibitor Resistant Ryegrass. As to the kind of experiment: Control of resistant ryegrass by glyphosate and representative SU's. Type of data set: in vivo. Particulars: glyphosate (SCAT) only or plus an SU. From the text: In this example, four different SU's were applied together with glyphosate (SCAT®) on the resistant ryegrass. The results as to the best SU partner for glyphosate were inconclusive, but the average benefit of applying an SU with glyphosate on herbicide resistant ryegrass was 39% (e.g., 34% control with glyphosate (SCAT®) only and 57-83% control with glyphosate (SCAT®) plus metsulfuron-methyl (BRUSH-OFF®), chlorsulfuron (GLEAN®), or triasulfuron (LOGRAN(®)).

The test system of data set [10] is Soybeans comprising the lead GAT7 event and also having HRA. The data set can be described thus: Greenhouse test confirming the field trial (Example 6B). Particulars: GAT/HRA Soybeans. The class given is in vivo, soybean. From the text:
Example 6B provides greenhouse data that confirms the field trial data provided above in Example 6A. Soybeans comprising the lead GAT7 event and also having HRA were used in the studies.

The next data set concerns lead GAT7 soybean events. The data set can be described thus: Field efficacy experiment JHM5G030, visual rating 7 and 14 days after treatment. The class given is in vivo. The settings on record: 7 DAS and 14 DAS; rimsulfuron 8.75 and 35.0 g/ha ai; Synchrony 35.03 and 140.11 g/ha ai; tribenuron 8.75 and 35.0 g/ha ai. The protocol:
GAT round 7 (GAT7) transgenic events from construct PHP20163A were evaluated in 2004 for herbicide efficacy (JHM464TGATEFF) and yield potential (JHD4_GAT7 tests). […] 92M90 was selected as a STS variety to compare directly with the SAMS:ALS construct in the GAT7 events. Variety Jack was utilized as an untransformed negative control.
Selected lines were grown in experiment JHM5G030 in two replications of paired twelve foot rows, with eleven different treatments applied. Lines were blocked by event and treatment to provide side-by-side comparison of the eleven different spray treatments, with a 2 row border between each treatment to catch any spray drift. […] Lines were given a 100 (complete susceptibility, 100% damage) to 0 (complete tolerance, 0% damage) visual rating at 7 days after treatment and again at 14 days after treatment. Visual ratings were based upon overall degree of chlorosis, necrosis, and plant stunting (if evident) in the treated rows compared to the respective unsprayed control rows. Rating data at 7 and 14 days after spraying were subject to ANOVA and mean separation using SAS.

The test system of the next data set is GAT-HRA soybeans. As to the kind of experiment: Postemergence herbicide test on soybeans, % visual injury. The class given is in vivo, soybean. Particulars: 35 g/ha. The protocol:
(§4) Four replications were performed for each treatment.
(§5) When possible, containers were thinned to two uniform plants.

In data set [11] the test system is Wild Type soybeans (Jack). The data set is described as above. The class given is in vivo, soybean. The settings on record: non-transgenic control soybeans; 35 g/ha. As to the method:
as §4, §5

`O=C(O)CNCP(=O)(O)O` [Glyphosate, N-phosphonomethylglycine]: the “Fresh Weight” value came to 1.0 g in [1] (weighed 2 weeks after treatment, untreated 76.4 g) and 97.4 g in data set [2] (weighed 2 weeks after treatment, untreated 98.8 g). In addition, the % visual injury to corn at 3472 g/ha in [1] (Zea mays, post-emergence) turned out to be 100%. The Visual crop injury (%) at 3472 g/ha in data set [2] (Zea mays, post-emergence) came to 10%. In [3], the “transgenic plants with no deleterious symptoms” value is “approximately 50%”. Besides, the “state of plants after application” value in data set [4] (1.5 lb acid equivalent per acre, 4-6 leaf stage, 2 weeks after application) is “dead”. Besides, the callus initiation in data set [5] (0.5 mM glyphosate in medium) was “about half of the embryos”. For the same compound, the callus growth in data set [5] (1.0 and 2.0 mM glyphosate in medium) is on record as “very little callus growth”. Also, the resistant callus initiation in data set [6] is “some embryos initiated resistant callus”. Moreover, in [7], the “plants that eventually died” value is 15 of the 16 plants (12%). Besides, in data set [8], the plants killed was 1 out of 16 plants (12%). The control in [9] came out at 34%.
For `CCS(=O)(=O)c1cccnc1S(=O)(=O)NC(=O)Nc1nc(OC)cc(OC)n1` [Rimsulfuron, N-[[(4,6-dimethoxy-2-pyrimidinyl)amino]carbonyl]-3-(ethylsulfonyl)-2-pyridinesulfonamide], the “damage from the application” value in data set [4] (16 g active ingredient/hectare, in the absence of glyphosate) is listed as “severe damage”. The “% Growth Reduction” value in [10] (Rimsulfuron 35 + Imazethapyr 0 g ai/ha, Treatment # 6) came to 67%; in data set [10] (Rimsulfuron 70 + Imazethapyr 0 g ai/ha, Treatment # 11), 73%. Also, the “spray damage of the 4 GAT events compared to Jack and STS” value with lead GAT7 soybean events was “significantly less spray damage compared to Jack and STS”.
Consider `COC(=O)c1ccccc1S(=O)(=O)NC(=O)N(C)c1nc(C)nc(OC)n1` [Tribenuron-methyl, methyl 2-[[[[N-(4-methoxy-6-methyl-1,3,5-triazin-2-yl)-N-methylamino]carbonyl]-amino]sulfonyl]benzoate], for which the damage entry is “no significant damage” in the data set on GAT-HRA soybeans and “killed” in [11]. Moreover, the “spray damage of the 4 GAT events compared to Jack and STS” value in the data set with lead GAT7 soybean events is “significantly less visual damage compared to STS and Jack”.
